# Test results published in US20160038454A1, “INTRAVENOUS FORMULATIONS OF […] AS IMMUNOMODULATORS AND […] AGENTS” (priority 2013, published 2016).
# “Also recorded” adds a separate entry of the source.
# How the values were obtained:
# [1] = Conversion to triptolide using human serum; assay type: in vitro ADME
# Text: (Xia Zhi Lin and Zhen You Lan, Haematologica, 93:14 (2008)).
# [2] = tested on: human T cell lymphoma (Jurkat) cells; assay: in vitro; assay type: cell-based
# Experimental: Test compounds may be dissolved in DMSO at a concentration of 20 mM. Further dilutions may be done in RPMI1640 medium (GIBCO, Rockville, Md.) supplemented with 10% Fetal Calf Serum (HyClone Laboratories, Logan, Utah).
# Cytotoxicity of the compounds is determined in a standard MTT assay using Cell Proliferation Kit I (#1 465 007, Roche Diagnostics, Mannheim, Germany). Briefly, human T cell lymphoma (Jurkat) cells (4×10^5 per well) are cultured for 24 h, in 96-well tissue culture plates, in the presence of serial three-fold dilutions of test compounds or medium containing the same concentration of DMSO as in the test samples at each dilution point. The cultures are then supplemented with 10 μl/well MTT reagent for 4 h and then with 0.1 ml/well solubilizing reagent for an additional 16 h. Optical density at 570 nm (OD570) is measured on a ThermoScan microplate reader (Molecular Devices, Menlo Park, Calif.).
# [3] = tested on: MV4-11 cells; assay: Synergy with AML drugs in vitro; assay type: cell-based; details: MV4-11 cells in vitro
# Text: Another consequence of XPB binding is the inhibition of nucleotide excision repair.
# [4] = Solubility of PG796(MRx102) in triglyceride oils (GTO vs SBO); assay type: physicochemical; details: glyceryl trioctanoate vs soybean oil
# [5] = tested on: IL-2 production by Jurkat cells; assay: cells; assay type: cell-based, human
# Experimental: Test samples can be diluted to 1 mM in complete tissue culture medium. Aliquots are placed in microculture plates coated with anti-CD3 antibody (used to stimulate the production of IL-2 by Jurkat cells), and serial dilutions are prepared so that the final concentration encompass the range of 0.001 to 10,000 nM in log increments. Cells from an exponentially expanding culture of Jurkat human T cell line (#TIB-152 obtained from American Type Culture Collection, Manassas, Va.) are harvested, washed once by centrifugation, re-suspended in complete tissue culture medium, and diluted to a concentration of 2×10^6 cells/ml. A volume of 50 μl of Jurkat cells (1×10^5 cells) is added to wells containing 100 μl of the diluted compounds, 50 μl of PMA (10 ng/ml) is added to each well, and the plates are incubated at 37° C. in a 5% CO2 incubator. After 24 hours, the plates are centrifuged to pellet the cells, 150 μl of supernatant is removed from each well, and the samples are stored at −20° C. The stored supernatants are analyzed for human IL-2 concentration using the Luminex 100 (Luminex Corporation, Austin, Tex.), Luminex microspheres coupled with anti-IL-2 capture antibody, and fluorochrome-coupled anti-IL-2 detection antibody. The data are expressed as pg/ml of IL-2.
# [6] = tested on: bulk, CD34(+) progenitor and CD34(+)CD38(−) stem/progenitor cells from AML patients; details: low nanomolar concentrations; also in coculture with mesenchymal stromal cells; Carter et al. 2012; cited from earlier work
# [7] = Rodent toxicology study, intravenous, seven days; assay type: in vivo, rodents; details: in vivo, iv; intravenously for seven days in rodents; read-out: no effect dose (NOAEL)
# Experimental: (§1) Triptolide prodrugs are generally believed to be safer than triptolide. […] Triptolide prodrugs as an emulsion formulation are believed to have a toxicokinetic profile characterized by a flat AUC with a minimized Cmax. [In conjunction, it was postulated that a sustained inhibition of RNA polymerase is needed for optimum efficacy which in turn requires a pharmcokinetic profile of constant exposure to drug]. […] The no effect dose (“NOAEL”) of PG796(MRx102) again exceeded 1.5 mg/kg/day intravenously for seven days in rodents confirming the initial results. It is interesting to ask why a prodrug of triptolide would be safer than the natural product itself; while not wishing to be bound by theory, perhaps the answer lies in the pharmacokinetic profile of triptolide administered either directly or released from its carrier, PG796(MRx102). […] It also remained above the therapeutic levels (shown as a thick line without symbols). The difference in the Cmax/AUC profile of PG796(MRx102) vs. triptolide is believed to be due to the physiochemical properties of the lipid prodrug/emulsion formulation combination. In general, triptolide prodrugs having a cLogP greater than 0.5 are more lipid-soluble than water soluble and are expected to take longer to convert to the drug form; such characteristics may yield a flatter conversion profile and less of a drug-release Cmax spike.
# [8] = tested on: rodents; assay: Rodent toxicology study, intravenous, seven days; assay type: in vivo
# Experimental: as §1
# [9] = tested on: Ba/F3-ITD cells; details: mice harboring Ba/F3-ITD cells; Carter et al. 2012; cited from earlier work
# [10] = TK: plasma triptolide levels, Calvert study (emulsion); assay type: in vivo, rodents; details: FIG. 1
# Experimental: as §1
# TK comparison of triptolide levels in Calvert and SRI studies—Males and Females
# [11] = Jurkat cells, comparison with triptolide or PG490-88
# [12] = incubated in human serum compared with mouse serum
smiles,measurement,setting,value
"CC(C)[C@]12O[C@H]1[C@@H]1O[C@]13[C@]1(O[C@H]1C[C@H]1c4c(C(=O)c5ccccc5)oc(OC(=O)c5ccccc5)c4CC[C@@]13C)[C@@H]2O [PG796, 18-deoxo-19-dehydro-18-benzoyloxy-19-benzoyl triptolide]",conversion to triptolide in human serum,[1],rapidly and completely converted
same,cytotoxic activity in MTT assay (in words),[2]; [11],cytotoxic; also recorded: higher level of activity
same,activity in MTT assay after incubation in human serum vs mouse serum,[2]; [12],"high, and essentially equivalent, activity"
same,synergy with cytarabine,[3],synergy was demonstrated
same,synergy with idarubicin,[3],synergy was demonstrated
same,solubility in GTO relative to SBO,[4],about 3.4 fold
same,IL-2 inhibition (in words),[5]; [11],inhibited IL-2 production; also recorded: higher level of activity
same,activity in IL-2 inhibition assay after incubation in human serum vs mouse serum,[5]; [12],"high, and essentially equivalent, activity"
same,apoptosis in cells from AML patients,[6],induced apoptosis
same,NOAEL at 7 days,[7],> 1.5 mg/kg/day
same,gross or histopathologic toxic effects,"[8]; intravenous doses up to 1.5 mg/kg/day for seven days, initial rodent toxicology study",no gross or histopathologic toxic effects
same,toxicity relative to triptolide (times less toxic),"[8]; intravenous, emulsion formulation, rodents, gross and histopathologic criteria",at least 20 times
same,leukemia burden,[9],greatly decreased
same,survival time,[9],increased
same,triptolide Cmax after prodrug relative to triptolide administered directly,"[10]; intravenous, emulsion",approximately one-tenth
same,triptolide blood levels over time,[10]; prodrug administered,remained relatively constant
